Experiments:
Assay in all cases: relative viability (nuclei count vs DMSO), 5 days (fraction); higher = more cells survive
Afatinib + Vorinostat = compound: CN(C)C/C=C/C(=O)Nc1cc2c(Nc3ccc(F)c(Cl)c3)ncnc2cc1O[C@H]1CCOC1 [Afatinib] + O=C(CCCCCCC(=O)Nc1ccccc1)NO [Vorinostat] (partner 1 µM)
Method in brief: (§1)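 Medians of duplicate plates are given as relative viability. That measure is the nuclei count in treated wells divided by the count in vehicle wells. Counts were taken on 4× images of lung cancer cell lines in 1536-well plates, 5 days after pin-tool dosing the day after seeding with one drug alone or a fixed anchor-drug dose plus five library-drug doses (not always all listed) in √10 steps.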

Afatinib + Pictilisib = compound: CN(C)C/C=C/C(=O)Nc1cc2c(Nc3ccc(F)c(Cl)c3)ncnc2cc1O[C@H]1CCOC1 [Afatinib] + CS(=O)(=O)N1CCN(Cc2cc3nc(-c4cccc5[nH]ncc45)nc(N4CCOCC4)c3s2)CC1 [Pictilisib] (partner 1 µM)
Method in brief: as §1

Afatinib + Crizotinib = compound: CN(C)C/C=C/C(=O)Nc1cc2c(Nc3ccc(F)c(Cl)c3)ncnc2cc1O[C@H]1CCOC1 [Afatinib] + C[C@@H](Oc1cc(-c2cnn(C3CCNCC3)c2)cnc1N)c1c(Cl)ccc(F)c1Cl [Crizotinib] (partner 1 µM)
Method in brief: as §1

Afatinib + Dasatinib = compound: CN(C)C/C=C/C(=O)Nc1cc2c(Nc3ccc(F)c(Cl)c3)ncnc2cc1O[C@H]1CCOC1 [Afatinib] + Cc1nc(Nc2ncc(C(=O)Nc3c(C)cccc3Cl)s2)cc(N2CCN(CCO)CC2)n1 [Dasatinib] (partner 0.075 µM)
Method in brief: as §1

| Cell Line | relative viability (Afatinib + Vorinostat; first compound 0.005 µM) | relative viability (Afatinib + Vorinostat; first compound 0.01581 µM) | relative viability (Afatinib + Vorinostat; first compound 0.05 µM) | relative viability (Afatinib + Vorinostat; first compound 0.1581 µM) | relative viability (Afatinib + Vorinostat; first compound 0.5 µM) | relative viability (Afatinib + Pictilisib; first compound 0.005 µM) | relative viability (Afatinib + Pictilisib; first compound 0.01581 µM) | relative viability (Afatinib + Pictilisib; first compound 0.05 µM) | relative viability (Afatinib + Pictilisib; first compound 0.1581 µM) | relative viability (Afatinib + Pictilisib; first compound 0.5 µM) | relative viability (Afatinib + Crizotinib; first compound 0.005 µM) | relative viability (Afatinib + Crizotinib; first compound 0.01581 µM) | relative viability (Afatinib + Crizotinib; first compound 0.05 µM) | relative viability (Afatinib + Crizotinib; first compound 0.1581 µM) | relative viability (Afatinib + Crizotinib; first compound 0.5 µM) | relative viability (Afatinib + Dasatinib; first compound 0.005 µM) | relative viability (Afatinib + Dasatinib; first compound 0.01581 µM) | relative viability (Afatinib + Dasatinib; first compound 0.05 µM) | relative viability (Afatinib + Dasatinib; first compound 0.1581 µM) | relative viability (Afatinib + Dasatinib; first compound 0.5 µM) |
| --- | --- | --- | --- | --- | --- | --- | --- | --- | --- | --- | --- | --- | --- | --- | --- | --- | --- | --- | --- | --- |
| HCC-78 | 0.433 | 0.404 | 0.422 | 0.345 | 0.376 | 0.207 | 0.189 | 0.19 | 0.218 | 0.173 | 0.308 | 0.279 | 0.245 | 0.252 | 0.221 | 0.445 | 0.341 | 0.366 | 0.29 | 0.331 |
| HCC-366 | 0.329 | 0.36 | 0.348 | 0.36 | 0.345 | 0.143 | 0.123 | 0.224 | 0.134 | 0.191 | 0.746 | 0.643 | 0.554 | 0.428 | 0.476 | 0.697 | 0.666 | 0.605 | 0.62 | 0.723 |
| HCC-827 | 0.166 | 0.134 | 0.146 | 0.151 | 0.146 | 0.295 | 0.324 | 0.312 | 0.37 | 0.226 | 0.169 | 0.176 | 0.184 | 0.184 | 0.21 | 0.14 | 0.135 | 0.16 | 0.175 | 0.15 |
| HOP-62 | 0.736 | 0.655 | 0.746 | 0.727 | 0.673 | 0.802 | 0.688 | 0.757 | 0.662 | 0.639 | 1.04 | 0.883 | 1.11 | 1.05 | 0.969 | 0.701 | 0.639 | 0.731 | 0.648 | 0.693 |
| IA-LM | 1.1 | 0.964 | 0.866 | 0.81 | 0.892 | 0.251 | 0.221 | 0.227 | 0.198 | 0.212 | 1.12 | 0.728 | 1.04 | 0.74 | 1.11 | – | – | – | – | – |
| LC-2-ad | 0.767 | 0.717 | 0.705 | 0.662 | 0.78 | 0.617 | 0.427 | 0.439 | 0.359 | 0.375 | 0.566 | 0.422 | 0.409 | 0.382 | 0.408 | 0.735 | 0.389 | 0.527 | 0.509 | 0.477 |
| LCLC-97TM1 | 0.793 | 0.784 | 0.861 | 0.628 | 0.646 | 0.27 | 0.182 | 0.182 | 0.144 | 0.15 | 0.491 | 0.337 | 0.329 | 0.242 | 0.308 | 0.926 | 0.766 | 0.812 | 0.709 | 0.842 |
| LCLC-103H | 0.809 | 0.817 | 0.703 | 0.732 | 0.704 | 0.621 | 0.572 | 0.642 | 0.62 | 0.482 | 1 | 1.14 | 1.03 | 0.911 | 1.17 | 0.424 | 0.454 | 0.48 | 0.459 | 0.483 |
| LK-2 | 0.349 | 0.269 | 0.277 | 0.2 | 0.382 | 0.546 | – | 0.485 | 0.596 | 0.535 | 0.201 | – | 0.195 | 0.234 | 0.243 | 0.26 | 0.359 | 0.28 | 0.216 | 0.269 |
| LOU-NH91 | 0.742 | 0.776 | 0.837 | 0.748 | 0.848 | 0.492 | 0.49 | 0.541 | 0.498 | 0.501 | 0.523 | 0.574 | 0.69 | 0.488 | 0.542 | 0.399 | 0.421 | 0.486 | 0.424 | 0.4 |
| LU99A | 0.467 | 0.61 | 0.487 | 0.419 | 0.502 | 0.345 | 0.395 | 0.308 | 0.349 | 0.295 | 0.591 | 0.54 | 0.539 | 0.55 | 0.525 | 0.741 | 0.591 | 0.594 | 0.569 | 0.493 |
| NCI-H522 | 0.865 | 0.928 | 0.829 | 0.7 | 0.721 | – | – | – | – | – | – | – | – | – | – | 0.877 | 0.992 | 0.712 | 0.733 | 0.692 |
| NCI-H1299 | – | – | – | – | – | 0.84 | 0.828 | 0.927 | 0.647 | 0.68 | 1.01 | 0.961 | 0.983 | 0.97 | 0.934 | – | – | – | – | – |
| NCI-H1395 | 0.857 | 0.571 | 0.674 | 0.711 | 0.5 | 0.658 | 0.515 | 0.723 | 0.624 | 0.551 | – | – | – | – | – | 0.453 | 0.408 | 0.415 | 0.404 | 0.376 |
| NCI-H1563 | – | – | – | – | – | 0.6 | 0.644 | 0.683 | 0.637 | 0.657 | 0.844 | 0.835 | 0.872 | 0.795 | 0.882 | 0.476 | 0.435 | 0.437 | 0.501 | 0.451 |
| NCI-H1648 | 0.398 | 0.421 | 0.271 | 0.421 | 0.26 | – | – | – | – | – | – | – | – | – | – | – | – | – | – | – |
| NCI-H1703 | – | – | – | – | – | 0.239 | 0.246 | 0.263 | 0.23 | 0.205 | 0.824 | 0.694 | 0.581 | 0.731 | 0.561 | – | – | – | – | – |
| NCI-H1792 | – | – | – | – | – | 0.303 | 0.325 | 0.255 | 0.241 | 0.243 | 1.04 | 1.01 | 0.977 | 0.907 | 0.856 | 0.657 | 0.84 | 0.748 | 0.657 | 0.911 |
| NCI-H1793 | 0.733 | 0.424 | 0.411 | 0.401 | 0.38 | 0.36 | 0.23 | 0.362 | 0.39 | 0.31 | – | – | – | – | – | 0.33 | 0.341 | 0.343 | 0.361 | 0.272 |
| NCI-H2342 | 0.706 | 0.628 | 0.729 | 0.695 | 0.696 | – | – | – | – | – | – | – | – | – | – | 0.315 | 0.281 | 0.295 | 0.305 | 0.297 |
